Reference: ChEMBL document CHEMBL1201862, “PubChem BioAssay data set” (2004)
Several values for one entry are separate records, joined by “and”; a condition that tells them apart may be missing. Equal values may be shown once.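 Briefly, cells in 96-well plates were exposed to five compound concentrations for 48 h, and endpoints were estimated by linear interpolation. Here, GI50 denotes the concentration required for 50% inhibition of growth.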 Activity calls are given as the source filed them. Cut-off read from the data, not from the text of the source: active = GI50 up to about 1.1 µM and inactive = higher.

Tests used:
Test in all cases: NCI anticancer screen, dose series, 48 h
NCI-H522 = tested on: NCI-H522
KM12 = tested on: KM12
DMS-114 = tested on: DMS-114
IGROV-1 = tested on: IGROV-1
786-0 = tested on: 786-0
XF498 = tested on: XF498
CAKI-1 = tested on: CAKI-1
SK-OV-3 = tested on: SK-OV-3
NCI-H226 = tested on: NCI-H226
EKVX = tested on: EKVX
CCRF-CEM = tested on: CCRF-CEM
SN12C = tested on: SN12C
SK-MEL-28 = tested on: SK-MEL-28
DMS-273 = tested on: DMS-273
SF-268 = tested on: SF-268
SNB-78 = tested on: SNB-78
KM-20L2 = tested on: KM-20L2
HCT-116 = tested on: HCT-116
OVCAR-3 = tested on: OVCAR-3
UO-31 = tested on: UO-31
A498 = tested on: A498
SK-MEL-2 = tested on: SK-MEL-2
OVCAR-5 = tested on: OVCAR-5
HT-29 = tested on: HT-29
HOP-92 = tested on: HOP-92
OVCAR-8 = tested on: OVCAR-8
SF-539 = tested on: SF-539
SF-295 = tested on: SF-295
Malme-3M = tested on: Malme-3M
U-251 = tested on: U-251
LOX IMVI = tested on: LOX IMVI
MOLT-4 = tested on: MOLT-4
LXFL 529 = tested on: LXFL 529
SW-620 = tested on: SW-620
NCI-H23 = tested on: NCI-H23
UACC-62 = tested on: UACC-62
NCI-H460 = tested on: NCI-H460
ACHN = tested on: ACHN
RXF 393 = tested on: RXF 393
M19-MEL = tested on: M19-MEL
A549 = tested on: A549
HCC 2998 = tested on: HCC 2998
COLO 205 = tested on: COLO 205
SNB-19 = tested on: SNB-19
UACC-257 = tested on: UACC-257
HCT-15 = tested on: HCT-15
TK-10 = tested on: TK-10
RPMI-8226 = tested on: RPMI-8226
M14 = tested on: M14
OVCAR-4 = tested on: OVCAR-4
SNB-75 = tested on: SNB-75
HOP-62 = tested on: HOP-62
DLD-1 = tested on: DLD-1

Structure (SMILES): Cc1c(C(=O)/C=C/c2ccc(N(C)C)cc2)c(=O)n(-c2ccccc2)n1C
- GI50 (NCI-H522): > 100 µM (inactive)
- GI50 (KM12): > 100 µM (inactive)
- GI50 (DMS-114): > 100 µM (inactive)
- GI50 (IGROV-1): > 100 µM (inactive)
- GI50 (786-0): > 100 µM (inactive)
- GI50 (XF498): > 100 µM (inactive)
- GI50 (CAKI-1): > 100 µM (inactive)
- GI50 (SK-OV-3): > 100 µM (inactive)
- GI50 (NCI-H226): > 100 µM (inactive)
- GI50 (EKVX): > 100 µM (inactive)
- GI50 (CCRF-CEM): > 100 µM (inactive)
- GI50 (SN12C): > 100 µM (inactive)
- GI50 (SK-MEL-28): > 100 µM (inactive)
- GI50 (DMS-273): > 100 µM (inactive)
- GI50 (SF-268): > 100 µM (inactive)
- GI50 (SNB-78): > 100 µM (inactive)
- GI50 (KM-20L2): > 100 µM (inactive)
- GI50 (HCT-116): > 100 µM (inactive)
- GI50 (OVCAR-3): > 100 µM (inactive)
- GI50 (UO-31): > 100 µM (inactive)
- GI50 (A498): > 100 µM (inactive)
- GI50 (SK-MEL-2): > 100 µM (inactive)
- GI50 (OVCAR-5): > 100 µM (inactive)
- GI50 (HT-29): > 100 µM (inactive)
- GI50 (HOP-92): > 100 µM (inactive)
- GI50 (OVCAR-8): > 100 µM (inactive)
- GI50 (SF-539): > 100 µM (inactive)
- GI50 (SF-295): > 100 µM (inactive)
- GI50 (Malme-3M): > 100 µM (inactive)
- GI50 (U-251): > 100 µM (inactive)
- GI50 (LOX IMVI): > 100 µM (inactive)
- GI50 (MOLT-4): > 100 µM (inactive)
- GI50 (LXFL 529): > 100 µM (inactive)
- GI50 (SW-620): > 100 µM (inactive)
- GI50 (NCI-H23): > 100 µM (inactive)
- GI50 (UACC-62): > 100 µM (inactive)
- GI50 (NCI-H460): > 100 µM (inactive)
- GI50 (ACHN): > 100 µM (inactive)
- GI50 (RXF 393): > 100 µM (inactive)
- GI50 (M19-MEL): > 100 µM (inactive)
- GI50 (A549): > 100 µM (inactive)
- GI50 (HCC 2998): > 100 µM (inactive)
- GI50 (COLO 205): > 100 µM (inactive)
- GI50 (SNB-19): > 100 µM (inactive)
- GI50 (UACC-257): > 100 µM (inactive)
- GI50 (HCT-15): > 100 µM
- GI50 (TK-10): > 100 µM (inactive)

Structure (SMILES): CC(C)=CCSC1CC2C(CC1(C)O)C2(C)C (stereo not drawn)
- GI50 (RPMI-8226): 17.5 µM (inactive) and 21.9 µM (inactive)
- GI50 (KM12): 19.3 µM (inactive) and 14.1 µM (inactive)
- GI50 (DMS-114): 15.6 µM (inactive) and 10.1 µM (inactive)
- GI50 (IGROV-1): 19 µM (inactive) and 16.9 µM (inactive)
- GI50 (786-0): 15.9 µM (inactive) and 13.1 µM (inactive)
- GI50 (M14): 17.7 µM (inactive) and 14.7 µM (inactive)
- GI50 (OVCAR-4): 19.7 µM (inactive) and 15.8 µM (inactive)
- GI50 (XF498): 4.84 µM (inactive) and 4.62 µM (inactive)
- GI50 (CAKI-1): 14.6 µM (inactive) and 12.5 µM (inactive)
- GI50 (SK-OV-3): 15 µM (inactive) and 16.2 µM (inactive)
- GI50 (NCI-H226): 13.7 µM (inactive) and 14.4 µM (inactive)
- GI50 (EKVX): 12.9 µM (inactive) and 16.1 µM (inactive)
- GI50 (SN12C): 17 µM (inactive) and 15.6 µM (inactive)
- GI50 (SK-MEL-28): 16.8 µM (inactive) and 17 µM (inactive)
- GI50 (DMS-273): 15.8 µM (inactive) and 9.98 µM (inactive)
- GI50 (SF-268): 18.3 µM (inactive) and 16.3 µM (inactive)
- GI50 (SNB-78): 23.4 µM (inactive) and 12 µM (inactive)
- GI50 (KM-20L2): 15.7 µM (inactive) and 19.1 µM (inactive)
- GI50 (HCT-116): 15.3 µM (inactive) and 17.1 µM (inactive)
- GI50 (OVCAR-3): 17.1 µM (inactive) and 11.4 µM (inactive)
- GI50 (A498): 21.6 µM (inactive) and 17.3 µM (inactive)
- GI50 (OVCAR-5): 14.9 µM (inactive) and 16.5 µM (inactive)
- GI50 (HT-29): 15.7 µM (inactive) and 14.9 µM (inactive)
- GI50 (HOP-92): 14.1 µM (inactive) and 16.6 µM (inactive)
- GI50 (OVCAR-8): 16.6 µM (inactive) and 14.1 µM (inactive)
- GI50 (SF-539): 18 µM (inactive) and 15.6 µM (inactive)
- GI50 (SF-295): 40.7 µM (inactive) and 20.9 µM (inactive)
- GI50 (Malme-3M): 17.3 µM (inactive) and 16.4 µM (inactive)
- GI50 (SNB-75): 15.8 µM (inactive) and 11.5 µM (inactive)
- GI50 (U-251): 15.2 µM (inactive) and 14.1 µM (inactive)
- GI50 (LOX IMVI): 16.2 µM (inactive) and 15.1 µM (inactive)
- GI50 (MOLT-4): 13.6 µM (inactive) and 20.9 µM (inactive)
- GI50 (LXFL 529): 17.3 µM (inactive) and 14 µM (inactive)
- GI50 (SW-620): 19.6 µM (inactive) and 17.1 µM (inactive)
- GI50 (HOP-62): 16.4 µM (inactive) and 16.6 µM (inactive)
- GI50 (NCI-H23): 16.1 µM (inactive) and 12.5 µM (inactive)
- GI50 (UACC-62): 15.4 µM (inactive) and 17.5 µM (inactive)
- GI50 (NCI-H460): 18.4 µM (inactive) and 14.2 µM (inactive)
- GI50 (ACHN): 17.2 µM (inactive) and 17.5 µM (inactive)
- GI50 (A549): 11.6 µM (inactive) and 16.6 µM (inactive)
- GI50 (HCC 2998): 1.83 µM (inactive) and 2.82 µM (inactive)
- GI50 (COLO 205): 17.1 µM (inactive) and 18.5 µM (inactive)
- GI50 (SNB-19): 17.2 µM (inactive) and 19.3 µM (inactive)
- GI50 (DLD-1): 17.3 µM (inactive) and 13.8 µM (inactive)
- GI50 (HCT-15): 17.3 µM and 16.1 µM
- GI50 (TK-10): 18.1 µM (inactive) and 16.9 µM (inactive)
